Measurements reported in article PMC3024946, “Hydroxyproline-containing collagen analogs trigger the release and activation of collagen-sequestered proMMP-2 by competition with prodomain-derived peptide P33-42” (Fibrogenesis & Tissue Repair, 2011).

Tested on: ProMMP-2
Experiment: Fluorogenic short-substrate assay, activation of proMMP-2
Format: biochemical, human
Conditions: 10-fold excess; 50 ng proMMP-2; 800 nM MCA-Pro-Leu-Gly-Leu-Dnp-Dap-Ala-Arg-NH2; 37°C; on BSA or CI
Experimental: Enzymatic activities of MMPs were studied spectrofluorimetrically by cleavage of fluorogenic substrates in MMP activity buffer within 2 to 5 h. For gelatinases 800 nM MCA-Pro-Leu-Gly-Leu-Dnp-Dap-Ala-Arg-NH2 (λex/em 328/393 nm; Bachem, Bubendorf, Switzerland) or 10 μg/ml DQ-gelatine were used, according to the method described by Knight et al. for collagenases 800 nM MCA-Pro-Cha-Gly-Nva-His-Ala-Dpa-NH2 (λex/em 280/360 nm; Anaspec, San José, CA, USA). In some experiments, proMMP-2 was fully activated in the presence of 1 mM APMA prior to the kinetic measurements. A quantity of 50 ng pro- or actMMP-2 alone or mixed with 10- to 150-fold molar excesses of (GPO)10, GAP, P33-42 or mixtures of (GPO)10 and P33-42, were added to CI-coated, BSA-coated (1 μg/well both) or uncoated wells containing 150 μl of the respective substrate solution. The peptide P33-42 was purchased from the Institute of Biochemistry (Humboldt-University, Berlin, Germany). The influence of CI on MMP-2 enzymatic activity against the quenched fluorescent substrate could be excluded. Background subtraction (measurement without MMPs) was applied to all curves. All experiments were performed with a fluorescence microplate reader (Molecular Devices, Sunnyvale, CA, USA) and black 96-well microtiter plates with a clear bottom (Greiner bio-one, Frickenhausen, Germany).

H-Gly-Cys-Hyp-(Gly-Pro-Hyp)10-Gly-Cys-Hyp-Gly-NH2 [(GPO)10, triple-helical Hyp-containing collagen analog]
activation of proMMP-2: resulted in the same plateau activity as actMMP-2 without (GPO)10
